According to patent US20130217702A1 (Richter Gedeon Nyrt., priority 2010, published 2013):

Legend:
[1] = target: T1, human recombinant bradykinin B1 receptor (Homo sapiens, UniProt P46663); experiment: Human recombinant bradykinin B1 receptor competitive radioligand binding; details: hB1 expressed in CHO cells, [3H]-[Des-Arg10] Kallidin radioligand; read-out: B1 binding
T1 construct: host or cells: CHO cells, clone hB1-A5
T1 sequence (P46663 1-353): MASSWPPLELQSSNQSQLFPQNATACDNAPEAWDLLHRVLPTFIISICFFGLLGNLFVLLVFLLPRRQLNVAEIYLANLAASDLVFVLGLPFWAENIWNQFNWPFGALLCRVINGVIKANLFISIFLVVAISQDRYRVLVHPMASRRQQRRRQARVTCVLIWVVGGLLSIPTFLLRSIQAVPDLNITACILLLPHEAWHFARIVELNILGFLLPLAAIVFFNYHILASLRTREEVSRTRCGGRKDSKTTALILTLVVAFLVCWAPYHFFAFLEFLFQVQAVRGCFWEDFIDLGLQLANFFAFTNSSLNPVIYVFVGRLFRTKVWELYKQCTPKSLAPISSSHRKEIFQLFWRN
In short: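 Competition radioligand binding on CHO-expressed hB1 membranes, using [3,4-prolyl-3,4-^3H(N)]-[Des-Arg^10] Kallidin as tracer, 15 min at 25° C. Excess Lys-des-Arg^9-Bradykinin (10 μM) set nonspecific binding. Sigmoidal fits of at least seven concentrations gave IC50, converted to Ki via Cheng-Prusoff; KD from Scatchard.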

[2] = target: T2, recombinant human B1 receptors (Homo sapiens, UniProt P46663); experiment: Functional assay: antagonist potency by cytosolic calcium measurement (plate reader fluorimeter) in CHO-B1 cells, agonist LysDABK; type: cell-based; details: CHO-B1 cells, inhibition of LysDABK (EC80)-evoked [Ca2+]i elevation; read-out: B1 func.
T2 construct: host or cells: CHO (CHO-B1)
T2 sequence (P46663 1-353): T1 sequence (P46663 1-353)
In short: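 IC50 is the concentration giving half-maximal inhibition of the LysDABK (EC80) calcium response, fitted from at least three experiments. CHO cells stably expressing human B1 were dye-loaded, exposed to compound for 20-25 min, then read by fluo-4 fluorescence (ΔF/F) at 37 °C.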

Structure (SMILES) | Ki [1] | IC50 [2]
COc1ccc2c(c1)c(Cl)c(C#N)n2-c1ccc(CNC(=O)C2(NC(=O)c3cc(OC)no3)CC2)cc1 [Example 52, 3-Methoxy-isoxazole-5-carboxylic acid {1-[4-(3-chloro-2-cyano-5-methoxy-indol-1-yl)-benzylcarbamoyl]-cyclopropyl}-amide] | < 0.02 µM | < 0.02 µM
COc1cc(C(=O)NC2(C(=O)NCc3ccc(-n4c(-c5noc(C)n5)cc5cc(Cl)ccc54)cc3)CC2)on1 [Example 53, 3-Methoxy-isoxazole-5-carboxylic acid (1-{4-[5-chloro-2-(5-methyl-[1,2,4]oxadiazol-3-yl)-indol-1-yl]-benzylcarbamoyl}-cyclopropyl)-amide] | < 0.02 µM | < 0.02 µM
COC(=O)c1c(Cl)c2ccccc2n1-c1ccc(CNC(=O)C2(NC(=O)C(F)(F)F)CC2)c(F)c1 [Example 54, 3-Chloro-1-[3-fluoro-4-({[1-(2,2,2-trifluoro-acetylamino)-cyclopropanecarbonyl]-amino}-methyl)-phenyl]-1H-indole-2-carboxylic acid methyl ester] | < 0.02 µM | < 0.02 µM
COC(=O)c1c(Cl)c2ccccc2n1-c1ccc(CNC(=O)C2(NC(=O)c3cc(OC)no3)CC2)c(F)c1 [Example 55, 3-Chloro-1-{3-fluoro-4-[({1-[(3-methoxy-isoxazole-5-carbonyl)-amino]-cyclo-propanecarbonyl}-amino)-methyl]-phenyl}-1H-indole-2-carboxylic acid methyl ester] | < 0.02 µM | < 0.02 µM
COc1cc(C(=O)NC2(C(=O)NCc3ccc(-n4c(-c5nc(C)no5)cc5ccccc54)cn3)CC2)on1 [Example 56, 3-Methoxy-isoxazole-5-carboxylic acid [1-({5-[2-(3-methyl-[1,2,4]oxadiazol-5-yl)-indol-1-yl]-pyridin-2-ylmethyl}-carbamoyl)-cyclopropyl]-amide] | 0.1 to 0.5 µM | 0.1 to 0.5 µM
COc1cc(C(=O)NC2(C(=O)NCc3ccc(-n4c(-c5noc(C)n5)cc5ccccc54)cn3)CC2)on1 [Example 57, 3-Methoxy-isoxazole-5-carboxylic acid [1-({5-[2-(5-methyl-[1,2,4]oxadiazol-3-yl)-indol-1-yl]-pyridin-2-ylmethyl}-carbamoyl)-cyclopropyl]-amide] | 0.02 to 0.1 µM | 0.02 to 0.1 µM
COc1cc(C(=O)NC2(C(=O)NCc3ccc(-n4c(-c5nc(C)no5)c(Cl)c5ccccc54)cn3)CC2)on1 [Example 58, 3-Methoxy-isoxazole-5-carboxylic acid [1-({5-[3-chloro-2-(3-methyl-[1,2,4]oxadiazol-5-yl)-indol-1-yl]-pyridin-2-ylmethyl}-carbamoyl)-cyclopropyl]-amide] | < 0.02 µM | < 0.02 µM
COc1cc(C(=O)NC2(C(=O)NCc3ccc(-n4c(-c5nnn(C)n5)c(Cl)c5cc(F)ccc54)cn3)CC2)on1 [Example 59, 3-Methoxy-isoxazole-5-carboxylic acid [1-({5-[3-chloro-5-fluoro-2-(2-methyl-2H-tetrazol-5-yl)-indol-1-yl]-pyridin-2-ylmethyl}-carbamoyl)-cyclopropyl]-amide] | < 0.02 µM | < 0.02 µM
COc1cc(C(=O)NC2(C(=O)NCc3ccc(-n4c(-c5nnn(C)n5)c(Cl)c5ccccc54)cn3)CC2)on1 [Example 60] | < 0.02 µM | < 0.02 µM
COc1cc(C(=O)NC2(C(=O)NCc3ccc(-n4c(-c5noc(C)n5)cc5cc(F)ccc54)cn3)CC2)on1 [Example 61, 3-Methoxy-isoxazole-5-carboxylic acid [1-({5-[5-fluoro-2-(5-methyl-[1,2,4]oxadiazol-3-yl)-indol-1-yl]-pyridin-2-ylmethyl}-carbamoyl)-cyclopropyl]-amide] | < 0.02 µM | < 0.02 µM
COc1cc(C(=O)NC2(C(=O)NCc3ccc(-n4c(-c5noc(C)n5)c(Cl)c5cc(F)ccc54)cn3)CC2)on1 [Example 62, 3-Methoxy-isoxazole-5-carboxylic acid [1-({5-[3-chloro-5-fluoro-2-(5-methyl-[1,2,4]oxadiazol-3-yl)-indol-1-yl]-pyridin-2-ylmethyl}-carbamoyl)-cyclopropyl]-amide] | < 0.02 µM | < 0.02 µM
COc1ccc2c(c1)c(Cl)c(-c1noc(C)n1)n2-c1ccc(CNC(=O)C2(NC(=O)C(F)(F)F)CC2)cc1 [Example 63, 1-(2,2,2-Trifluoro-acetylamino)-cyclopropanecarboxylic acid 4-[3-chloro-5-methoxy-2-(5-methyl-[1,2,4]oxadiazol-3-yl)-indol-1-yl]-benzylamide] | < 0.02 µM | < 0.02 µM
COc1ccc2c(c1)c(Cl)c(-c1noc(C)n1)n2-c1ccc(CNC(=O)C2(NC(=O)c3cc(OC)no3)CC2)cc1 [Example 64, 3-Methoxy-isoxazole-5-carboxylic acid (1-{4-[3-chloro-5-methoxy-2-(5-methyl-[1,2,4]oxadiazol-3-yl)-indol-1-yl]-benzylcarbamoyl}-cyclopropyl)-amide] | < 0.02 µM | < 0.02 µM
Cc1nc(-c2c(Cl)c3cc(Cl)ccc3n2-c2ccc(CNC(=O)C3(NC(=O)C(F)(F)F)CC3)cc2)no1 [Example 65, 1-(2,2,2-Trifluoro-acetylamino)-cyclopropanecarboxylic acid 4-[3,5-dichloro-2-(5-methyl-[1,2,4]oxadiazo 1-3-yl)-indol-1-yl]-benzylamide] | < 0.02 µM | < 0.02 µM
COc1cc(C(=O)NC2(C(=O)NCc3ccc(-n4c(-c5noc(C)n5)c(Cl)c5cc(Cl)ccc54)cc3)CC2)on1 [Example 66, 3-Methoxy-isoxazole-5-carboxylic acid (1-{4-[3,5-dichloro-2-(5-methyl-[1,2,4]oxadiazol-3-yl)-indol-1-yl]-benzylcarbamoyl}-cyclopropyl)-amide] | < 0.02 µM | < 0.02 µM
COc1cc(C(=O)NC2(C(=O)NCc3ccc(-n4c(-c5noc(C)n5)c(Cl)c5cc(F)ccc54)cc3)CC2)on1 [Example 67, 3-Methoxy-isoxazole-5-carboxylic acid (1-{4-[3-chloro-5-fluoro-2-(5-methyl-[1,2,4]oxadiazol-3-yl)-indol-1-yl]-benzylcarbamoyl}-cyclopropyl)-amide] | < 0.02 µM | < 0.02 µM
COC(=O)c1c(Cl)c2c(F)cccc2n1-c1ccc(CNC(=O)C2(NC(=O)c3cc(OC)no3)CC2)cc1 [Example 68, 3-Chloro-4-fluoro-1-{4-[({1-[(3-methoxy-isoxazole-5-carbonyl)-amino]-cyclo-propanecarbonyl}-amino)-methyl]-phenyl}-1H-indole-2-carboxylic acid methyl ester] | < 0.02 µM | < 0.02 µM
COC(=O)c1c(Cl)c2c(F)cccc2n1-c1ccc(CNC(=O)C2(NC(=O)C(F)(F)F)CC2)cc1 [Example 69, 3-Chloro-4-fluoro-1-[4-({[1-(2,2,2-trifluoro-acetylamino)-cyclopropanecarbonyl]-amino}-methyl)-phenyl]-1H-indole-2-carboxylic acid methyl ester] | 0.02 to 0.1 µM | 0.02 to 0.1 µM
Cc1nc(-c2c(Cl)c3cc(Cl)ccc3n2-c2ccc(CNC(=O)C3(NC(=O)c4cccnc4Cl)CC3)cc2)no1 [Example 70, 2-Chloro-N-(1-{4-[3,5-dichloro-2-(5-methyl-[1,2,4]oxadiazol-3-yl)-indol-1-yl]-benzylcarbamoyl}-cyclopropyl)-nicotinamide] | < 0.02 µM | < 0.02 µM
Cc1nc(-c2c(Cl)c3cc(Cl)ccc3n2-c2ccc(CNC(=O)C3(NC(=O)c4cccc(F)c4)CC3)cc2)no1 [Example 71, N-(1-{4-[3,5-Dichloro-2-(5-methyl-[1,2,4]oxadiazol-3-yl)-indol-1-yl]-benzylcarbamoyl}-cyclopropyl)-3-fluoro-benzamide] | < 0.02 µM | < 0.02 µM
Cc1cnc(C(=O)NC2(C(=O)NCc3ccc(-n4c(-c5noc(C)n5)c(Cl)c5cc(Cl)ccc54)cc3)CC2)cn1 [Example 72, 5-Methyl-pyrazine-2-carboxylic acid (1-{4-[3,5-dichloro-2-(5-methyl-[1,2,4]oxadiazol-3-yl)-indol-1-yl]-benzylcarbamoyl}-cyclopropyl)-amide] | < 0.02 µM | < 0.02 µM
Cc1cc(C(=O)NC2(C(=O)NCc3ccc(-n4c(-c5noc(C)n5)c(Cl)c5cc(Cl)ccc54)cc3)CC2)no1 [Example 73, 5-Methyl-isoxazole-3-carboxylic acid (1-{4-[3,5-dichloro-2-(5-methyl-[1,2,4]oxadiazol-3-yl)-indol-1-yl]-benzylcarbamoyl}-cyclopropyl)-amide] | < 0.02 µM | < 0.02 µM
Cc1nc(-c2c(Cl)c3cc(Cl)ccc3n2-c2ccc(CNC(=O)C3(NC(=O)c4ccnc(F)c4)CC3)cc2)no1 [Example 74, N-(1-{4-[3,5-Dichloro-2-(5-methyl-[1,2,4]oxadiazol-3-yl)-indol-1-yl]-benzylcarbamoyl}-cyclopropyl)-2-fluoro-isonicotinamide] | < 0.02 µM | < 0.02 µM
